Results on seven molecules are retold here after PMC12592420, “A mismatch in enzyme-redox partnerships underlies divergent cytochrome P450 activities between human hepatocytes and microsomes” (Communications Biology, 2025).

Data set [1] can be described thus: Free fraction in HLM incubation, equilibrium dialysis. Format: in vitro ADME, human. Particulars: fraction unbound, measured or estimated by in silico models of Fuinc.
The test system of a further data set is rat hepatocytes. The data set is described as follows: Free fraction in rat hepatocytes as surrogate for HH, equilibrium dialysis. As to conditions: fraction unbound, measured or estimated by in silico models of Fuinc. Format: in vitro ADME.
The nature of data set [2]: in vitro. Particulars: human, hepatocytes; for hepatocyte CLint at 1 µM / hepatocyte CLint: both. As to the method: (§1) Cryopreserved HH prepared from a mixed-gender pool of twenty donors (product X008000, lot EEO, BIOIVT), ten-donors (product S01205, lot MTJ, BIOIVT), ten donors (product S01205 lot LYB, BIOIVT) were utilised in the experiments. Cryopreserved HH were rapidly thawed in a water bath set at 37 °C and added to Leibovitz media that had been pre-warmed in the water bath. The suspension of cells was mixed gently and centrifuged at 40 × g for 4 min at room temperature. Excess media was removed, and the cells were re-suspended in 5 mL of fresh Leibovitz media. The cells were counted using an automated cell counter (Cellometer).

A short description of data set [3]: CLint in NADH-supplemented human liver microsomes. As to conditions: human. As to the method:
(§2) Calculation and scaling of CLint,u was done using the equation below and 45 mg of microsomal protein per gram of liver. HLMCLint,u=ln2/x1/t1/2(min)xmLincubation/mgmicrosomalproteinx45mgmicrosomalprotein/gliverx21gliver/kg/Fuinc
In general terms: Microsomes from liver hold many membrane-bound enzymes, among them those of drug oxidation.

The nature of data set [4]: LogD pH 7.4, octanol/phosphate buffer. Particulars: for logD: octanol/phosphate buffer, pH 7.4.
Data set [5] can be described thus: Intrinsic permeability in Caco-2 cells with efflux inhibited. As to conditions: human, Caco-2. For orientation: Caco-2 monolayers are a common model of the intestinal barrier.
Data set [6] can be described thus: CLint in NADPH-supplemented human liver microsomes. As to conditions: for microsomal CLint at 1 µM / CLint scaled at 1 µM: human. As to the method:
as §2

Another data set concerns human hepatocytes (HH). The data set is described as follows: in vitro. As to the method: as §1
The subject of a further data set is Caco-2 cells. The data set is described as follows: Intrinsic permeability in Caco-2 cells with efflux inhibited. As to conditions: intrinsic (passive) permeability, at least one determination.
Data set [7] in a line: in vitro. As to conditions: human, Caco-2.
The mark [8] stands for this setting: human liver microsomes + NADH, pH 7.4.
The mark [9] stands for this setting: human liver microsomes + NADPH, pH 7.4.
Where [10] appears, read: human liver microsomes, pH 7.4, NADPH_HLM_scaled_CLint,u, Fig. 4a,d.
Where [11] appears, read: microsomes, pH 7.4, NADPH_HLM_scaled_CLint,u, Fig. 4a,d.

By hepatocyte CLint is commonly meant a measure of how fast metabolising enzymes remove a compound, apart from limits set by blood flow. As usually defined, the CLint scaled is a measure of how fast metabolising enzymes remove a compound, apart from limits set by blood flow. A word on the microsomal CLint: it is the capacity of the preparation to metabolise the compound, expressed as a volume cleared per time. In general, logD refers to the decadic logarithm of the distribution of all forms, ionised or not, between an organic phase and buffer at a given pH. In general, Papp refers to a coefficient for how fast a substance crosses the barrier.

Several values for one entry are separate records, joined by “and”; a condition that tells them apart may be missing. Identical values can stand only once.

`CN(C)CCCOc1nn(Cc2ccccc2)c2ccccc12` [Benzydamine]: the fu_HLM in [1] is given as 0.356. Further, the fu_ratHH in the data set on rat hepatocytes was 0.643. Besides, the hepatocyte CLint at 1 µM in “in vitro [2]” turned out to be 6.69 µL/min/1e6 cells. The CLint scaled at 1 µM in “in vitro [2]” (HH_scaled_CLint,u) was found to be 26.2 mL/min/kg; in data set [3] (human liver microsomes, pH 7.4) it was 7.96 mL/min/kg; in data set [6] (setting [10]), 56 mL/min/kg. Moreover, the microsomal CLint at 1 µM in data set [3] (setting [8]) was 3 µL/min/mg; in [6] (setting [9]) it was 21.1 µL/min/mg. Besides, the logD in [4] turned out to be 2.25. Moreover, the Papp at 2 h, 10 µM in data set [5] is 27.4 ×10⁻⁶ cm/s.
For `CCN(C(=O)c1cc(F)ccc1Oc1nncnc1N1CCC2(C1)CN([C@H](CCCN(C)CCOC)C(C)C)C2)C(C)C` [Bleximenib], the fu_HLM in data set [1] is 0.721. Further, the fu_ratHH in the data set on rat hepatocytes is 0.794. In the data set on human hepatocytes (HH) (1 µM, single determination, Fig. 4a), this molecule returned an HH_CLint of 1.166 uL/min/106 cells. In the data set on human hepatocytes (HH) (Fig. 4a), the “HH_scaled_CLint,u” value is listed as 3.701 mL/min/kg. Besides, the “LogD pH 7.4” value in [4] (at least one determination) turned out to be 0.74. Also, the “Caco-2 Papp” value in the data set on Caco-2 cells was 0.575 10-6 cm/s. Further, the “HLM_NADPH CLint” value in [6] (1 µM, single determination, Fig. 4a,d) was 34.3 µL/min/mg. Also, the “NADPH_HLM_scaled_CLint,u” value in [6] (Fig. 4a,d) is listed as 44.9563 mL/min/kg.
As for `O=C(O)Cc1ccccc1Nc1c(Cl)cccc1Cl` [Diclofenac], the fu_HLM in [1] is given as 0.841. For the same molecule, the fu_ratHH in the data set on rat hepatocytes was 0.539. In addition, in “in vitro [2]”, the hepatocyte CLint at 1 µM was 79.5 µL/min/1e6 cells. Besides, the CLint scaled at 1 µM in “in vitro [2]” (HH_scaled_CLint,u) worked out at 372 mL/min/kg; in [3] (human liver microsomes, pH 7.4), 51.8 mL/min/kg; in data set [6] (setting [10]), 242 mL/min/kg. This molecule also displayed a logD in [4] of 1.07. The Papp at 2 h, 10 µM in data set [5] is 118 ×10⁻⁶ cm/s.
As to `O=C(O)c1cc(-c2ccc(F)cc2F)ccc1O` [Diflunisal], in [1], the fu_HLM is 0.81. In the data set with rat hepatocytes, the fu_ratHH is reported as 0.525. In addition, the hepatocyte CLint at 1 µM in the data set “in vitro [2]” is 4.29 µL/min/1e6 cells. The CLint scaled at 1 µM was 20.6 mL/min/kg in the data set “in vitro [2]” (HH_scaled_CLint,u); 3.5 mL/min/kg in data set [3] (microsomes, pH 7.4); 6.16 mL/min/kg in data set [6] (setting [11]). Moreover, the microsomal CLint at 1 µM in [3] (microsomes, pH 7.4) worked out at 3 µL/min/mg; in data set [6] (microsomes, pH 7.4), 5.28 µL/min/mg. Further, the logD in data set [4] was determined as 0.574. Besides, the Papp at 2 h, 10 µM in data set [5] is 129 ×10⁻⁶ cm/s.
Regarding `O=C1Nc2ccc(Cl)cc2C(c2ccccc2Cl)=NC1O` (centres unmarked) [Lorazepam], the fu_HLM in data set [1] is recorded as 0.724. For the same molecule, the Papp in the data set “in vitro [7]” stood at 67.2 ×10⁻⁶ cm/s. For the same molecule, the fu_ratHH with rat hepatocytes is 0.724. Besides, in “in vitro [2]” (HH_CLint, 1 µM, single determination, Fig. 4a), the hepatocyte CLint was found to be 2.77 µL/min/1e6 cells. This molecule came in with a CLint scaled in the data set “in vitro [2]” (HH_scaled_CLint,u, Fig. 4a) of 9.63 mL/min/kg. Also, the microsomal CLint at 1 µM amounted to 3 µL/min/mg in [3] (microsomes, pH 7.4, HLM_NADH CLint, 1 µM, single determination, Fig. 4a,d) and 4.99 µL/min/mg in data set [6] (microsomes, pH 7.4, HLM_NADPH CLint, 1 µM, single determination, Fig. 4a,d). Moreover, the CLint scaled at 1 µM in [3] (microsomes, pH 7.4, NADH_HLM_scaled_CLint,u, Fig. 4a,d) was found to be 3.92 mL/min/kg; in data set [6] (setting [11]), 6.51 mL/min/kg.
Regarding `COCCc1ccc(OCC(O)CNC(C)C)cc1` (centres unmarked) [Metoprolol], in data set [1], the fu_HLM is on record as 0.939. The fu_ratHH in the data set with rat hepatocytes is reported as 0.923. Further, the hepatocyte CLint in the data set “in vitro [2]” turned out to be 3.11 µL/min/1e6 cells. This molecule registered a CLint scaled in the data set “in vitro [2]” (HH_scaled_CLint,u, Fig. 4a) of 8.49 mL/min/kg. In addition, the microsomal CLint at 1 µM worked out at 3 µL/min/mg in data set [3] (setting [8]) and 4.05 µL/min/mg in data set [6] (setting [9]). In addition, the CLint scaled at 1 µM in data set [3] (human liver microsomes, pH 7.4) turned out to be 3.02 mL/min/kg; in [6] (setting [10]), 4.08 mL/min/kg. In addition, the logD in data set [4] is below -0.19. Also, in [5], the Papp at 2 h, 10 µM turned out to be 19.5 ×10⁻⁶ cm/s.
As to `C[C@]12C=CC(=O)C=C1CC[C@@H]1[C@@H]2[C@@H](O)C[C@@]2(C)[C@H]1CC[C@]2(O)C(=O)CO` [Prednisolone], the “Scaled HH CLint,u” value in the data set with human hepatocytes (HH) (HH, individual determinations 1-3, Fig. 1) is 12.4648 mL/min/kg and 14.0629 mL/min/kg. Moreover, the CLint scaled in “in vitro [2]” (Scaled HH CLint,u average, HH, average, Fig. 1) amounted to 13.7 mL/min/kg; in “in vitro [2]” (Scaled HH CLint,u, HH, individual determinations 1-3, Fig. 1), 14.7 mL/min/kg. The “HLM/HH (ratio of scaled CLint,u)” value in [6] (NADPH-HLM average over HH average, Fig. 1) was found to be 2.917. Further, in [6] (NADPH-HLM, individual determinations 1-3, Fig. 1), the “Scaled HLM CLint,u” value is 38.7639 mL/min/kg. The CLint scaled at 1 µM in data set [6] (human liver microsomes + NADPH, pH 7.4, Scaled HLM CLint,u, NADPH-HLM, individual determinations 1-3, Fig. 1) came out at 40.8 mL/min/kg; in data set [6] (human liver microsomes, pH 7.4, Scaled HLM CLint,u average, NADPH-HLM, average, Fig. 1), 40.1 mL/min/kg.
